Measurements from US20080262097A1, “Formulations” (priority 2005, published 2008).
In brackets after ≈: the same amount, converted by molar mass. Read-outs that look alike come from different tables or passages of the source.

What was measured:
[1] = tested on: S. aureus ATCC 12605; experiment: Disc diffusion assay (DDA); assay type: cell-based, Staphylococcus aureus; conditions: zone diameter, 200 μg per disc
Description: (§1) The staphylococci and enterococci were cultured and maintained on Mueller-Hinton Medium (agar and broth) at pH 7.2; they were incubated aerobically at 37° C. for 24 hours.
(§2) A sterile paper disc was impregnated with a sample of the test compound and a minimum of 30 minutes allowed for the solvents to evaporate as far as possible. The disc was then placed on an agar plate onto which the test micro-organism had been inoculated. The plate was then incubated under the conditions described above, following which it was examined visually for signs of bacterial growth. If the test compound had antimicrobial activity, a circular zone of no growth would be obtained around the disc. The diameter of this zone of “inhibition” was measured using a ProtoCOL™ automated zone sizer (Synbiosis, Cambridge, UK). In general, a greater diameter and/or area of the zone of inhibition indicates a greater antimicrobial activity in the relevant test compound, although other factors such as test compound mobility through the agar gel may also influence the result.
(§3) The area of the zone of inhibition was calculated from the measured zone diameter (D) using the formula π(D/2)^2.

[2] = tested on: S. aureus ATCC 12602; experiment: Disc diffusion assay (DDA); assay type: cell-based, Staphylococcus aureus; conditions: zone diameter, 200 μg per disc
Description: as §1, §2, §3

[3] = tested on: S. aureus ATCC 12604; experiment: Disc diffusion assay (DDA); assay type: cell-based, Staphylococcus aureus; conditions: zone diameter, 200 μg per disc
Description: as §1, §2, §3

[4] = tested on: S. aureus CPHL GISA HO41340156; experiment: Disc diffusion assay (DDA); assay type: cell-based, Staphylococcus aureus; conditions: zone diameter, 200 μg per disc
Description: as §1, §2, §3

[5] = tested on: S. aureus ATCC 12600-U; experiment: Disc diffusion assay (DDA); assay type: cell-based, Staphylococcus aureus; conditions: zone diameter, 200 μg per disc
Description: as §1, §2, §3

[6] = tested on: S. aureus ATCC 12607; experiment: Disc diffusion assay (DDA); assay type: cell-based, Staphylococcus aureus; conditions: zone diameter, 200 μg per disc
Description: as §1, §2, §3

[7] = tested on: Staphylococcus warneri ATCC 27836; experiment: MBC assay; assay type: cell-based; conditions: ATCC27836
Description: as §1
(§4) This assay, normally carried out after an MIC assay, determines the minimum concentration of a compound that is lethal to the micro-organism being tested.
(§5) These samples were then individually sub-cultured on non-selective agar medium, under the incubation conditions described above. Following incubation they were examined visually for bacterial growth.

[8] = tested on: Staphylococcus aureus ATCC 12600; experiment: MBC assay; assay type: cell-based; conditions: ATCC12600
Description: as §1, §4, §5

[9] = tested on: Staphylococcus simulans ATCC 27848; experiment: MBC assay; assay type: cell-based; conditions: ATCC27848
Description: as §1, §4, §5

[10] = tested on: P. acnes PRP-102; experiment: MBC assay; assay type: cell-based, Propionibacterium acnes; conditions: Cutibacterium acnes, PRP102; P. acnes PRP-102 (resistance Tet/MLS)
Description: (§6) The Propionibacterium spp organisms were cultured and maintained on Wilkins-Chalgren Anaerobe Medium (agar and broth) at pH 6.0; cultures were incubated anaerobically at 37° C. for 72 hours.
as §4, §5

[11] = tested on: P. acnes PRP-017; experiment: MBC assay; assay type: cell-based, Propionibacterium acnes; conditions: Cutibacterium acnes, PRP017; P. acnes PRP-017 (resistance MLS)
Description: as §6, §4, §5

[12] = tested on: P. acnes PRP-008; experiment: MBC assay; assay type: cell-based, Propionibacterium acnes; conditions: Cutibacterium acnes, PRP008; P. acnes PRP-008 (resistance Clin)
Description: as §6, §4, §5

[13] = tested on: P. acnes PRP-002; experiment: MBC assay; assay type: cell-based, Propionibacterium acnes; conditions: Cutibacterium acnes, PRP002; P. acnes PRP-002 (resistance Tet/MLS)
Description: as §6, §4, §5

[14] = tested on: P. acnes PRP-007; experiment: MBC assay; assay type: cell-based, Propionibacterium acnes; conditions: Cutibacterium acnes, PRP007; P. acnes PRP-007 (resistance Clin)
Description: as §6, §4, §5

[15] = tested on: P. acnes PRP-023; experiment: MBC assay; assay type: cell-based, Propionibacterium acnes; conditions: Cutibacterium acnes, PRP023; P. acnes PRP-023 (resistance MLSK)
Description: as §6, §4, §5

[16] = tested on: P. acnes PRP-003; experiment: MBC assay; assay type: cell-based, Propionibacterium acnes; conditions: Cutibacterium acnes, PRP003; P. acnes PRP-003 (resistance Tet)
Description: as §6, §4, §5

[17] = tested on: P. acnes PRP-059; experiment: MBC assay; assay type: cell-based, Propionibacterium acnes; conditions: Cutibacterium acnes, PRP059; P. acnes PRP-059 (resistance MLS)
Description: as §6, §4, §5

[18] = tested on: P. acnes PRP-046; experiment: MBC assay; assay type: cell-based, Propionibacterium acnes; conditions: Cutibacterium acnes, PRP046; P. acnes PRP-046 (resistance None)
Description: as §6, §4, §5

[19] = tested on: P. acnes PRP-101; experiment: MBC assay; assay type: cell-based, Propionibacterium acnes; conditions: Cutibacterium acnes, PRP101; P. acnes PRP-101 (resistance Tet/MLS)
Description: as §6, §4, §5

[20] = tested on: P. acnes PRP-068; experiment: MBC assay; assay type: cell-based, Propionibacterium acnes; conditions: Cutibacterium acnes, PRP068; P. acnes PRP-068 (resistance Ery)
Description: as §6, §4, §5

[21] = tested on: P. acnes PRP-026; experiment: MBC assay; assay type: cell-based, Propionibacterium acnes; conditions: Cutibacterium acnes, PRP026; P. acnes PRP-026 (resistance MLS)
Description: as §6, §4, §5

[22] = tested on: P. acnes PRP-004; experiment: MBC assay; assay type: cell-based, Propionibacterium acnes; conditions: Cutibacterium acnes, PRP004; P. acnes PRP-004 (resistance Tet)
Description: as §6, §4, §5

[23] = tested on: E faecalis ATCC 29212; experiment: Disc diffusion assay (DDA); assay type: cell-based, Enterococcus faecalis; conditions: zone diameter, 200 μg per disc
Description: 3. Enterococcus faecalis ATCC 29212—this is a Gram-positive bacterium belonging to the genus Enterococcus. Enterococci have similar properties to streptococci, but differ in their ability to grow on bile-salt containing media such as MacConkey's Agar. Their principal habitat is the mammalian gastrointestinal tract. They cause a number of important infections including endocarditis, urinary tract infections and abscesses. In the context of skin, they are frequently isolated from wound infections. Unlike the streptococci, the enterococci have developed widespread resistance to penicillin. More recently, E. faecalis and E. faecium strains have also developed resistance to the glycopeptide antibiotics such as vancomycin. Vancomycin-Resistant Enterococci (VRE), principally vanA strains of E. faecium, now represent a serious healthcare-acquired infection hazard in the USA, Japan and Western Europe. […]
A sterile paper disc was impregnated with a sample of the test compound and a minimum of 30 minutes allowed for the solvents to evaporate as far as possible. […] The diameter of this zone of “inhibition” was measured using a ProtoCOL™ automated zone sizer (Synbiosis, Cambridge, UK). […]
The area of the zone of inhibition was calculated from the measured zone diameter (D) using the formula π(D/2)^2. […]

| SMILES | DDA [1] [mm] | DDA [2] [mm] | DDA [3] [mm] | DDA [4] [mm] | DDA [5] [mm] | DDA [6] [mm] | MBC [10] [µg/mL] | MBC [11] [µg/mL] | MBC [12] [µg/mL] | MBC [13] [µg/mL] | MBC [14] [µg/mL] | MBC [15] [µg/mL] | MBC [16] [µg/mL] | MBC [17] [µg/mL] | MBC [18] [µg/mL] | MBC [19] [µg/mL] | MBC [20] [µg/mL] | MBC [21] [µg/mL] | MBC [22] [µg/mL] | DDA [23] [mm] | further results |
| --- | --- | --- | --- | --- | --- | --- | --- | --- | --- | --- | --- | --- | --- | --- | --- | --- | --- | --- | --- | --- | --- |
| CC(C)(C)c1cc(O)ccc1O [TBHQ, t-butyl hydroquinone] | 59.55 | 57.66 | 55.03 | 75.37 | 51.24 | 54.50 | 15.6 (≈ 93.9 µM) | 7.8 (≈ 46.9 µM) | 7.8 (≈ 46.9 µM) | 7.8 (≈ 46.9 µM) | 7.8 (≈ 46.9 µM) | 7.8 (≈ 46.9 µM) | 7.8 (≈ 46.9 µM) | 7.8 (≈ 46.9 µM) | 7.8 (≈ 46.9 µM) | 7.8 (≈ 46.9 µM) | 7.8 (≈ 46.9 µM) | 7.8 (≈ 46.9 µM) | 7.8 (≈ 46.9 µM) | 33.67 | MBC ([7]; Staphylococcus warneri): 7.8 µg/mL (≈ 46.9 µM); MBC ([8]; Staphylococcus aureus): 7.8 µg/mL (≈ 46.9 µM); MBC ([9]; Staphylococcus simulans): 31.2 µg/mL (≈ 188 µM) |
| O=C(OOC(=O)c1ccccc1)c1ccccc1 [benzoyl peroxide] | 12.20 | 12.73 | 12.52 | 12.16 | 12.20 | 12.31 | 62.5 (≈ 258 µM) | 62.5 (≈ 258 µM) | 31.2 (≈ 129 µM) | 31.2 (≈ 129 µM) | 62.5 (≈ 258 µM) | 62.5 (≈ 258 µM) | 31.2 (≈ 129 µM) | 125 (≈ 516 µM) | 62.5 (≈ 258 µM) | 31.2 (≈ 129 µM) | 125 (≈ 516 µM) | 31.2 (≈ 129 µM) | 15.6 (≈ 64.4 µM) | 0.0 | MBC ([7]; Staphylococcus warneri ATCC 27836, read-out: MBC): > 250 µg/mL; MBC ([8]; Staphylococcus aureus ATCC 12600, read-out: MBC): 250 µg/mL (≈ 1030 µM); MBC ([9]; Staphylococcus simulans ATCC 27848, read-out: MBC): > 250 µg/mL |
